Results as given in US20080262097A1, “Formulations” (priority 2005, published 2008).
≈ marks a conversion by molar mass, not a printed value. Read-outs that look alike come from different tables or passages of the source.

Experiments:
S. aureus ATCC 29213 = test: Time-to-kill (TTK) assay; format: cell-based, Staphylococcus aureus; conditions: BP 125 μg/ml and/or TBHQ […]; for CFU/ml 0.5: 0.5 hours; for CFU/ml 1.0: 1 hour
Experimental: This quantitative assay was designed to assess the time taken for a test compound to kill a test micro-organism.
Samples from an incubated liquid culture containing the relevant test compound and micro-organism were taken at timed intervals and inoculated onto agar plates. The plates were then incubated as described above and subsequently examined visually for growth. The numbers of viable microbial colonies on the plates were counted and converted to colony-forming units per ml (cfu/ml) using the appropriate dilution factor. By way of example, a colony count of 25 colonies from an agar plate carrying 100 μl of inoculum which had been serially diluted to 10^−6 would yield a viable cell count of 25×10 (to correct to 1 ml)×106 which would be equivalent to 2.5×10^8 cfu/ml. These cfu values were then converted into log10 values and plotted graphically against time of sample removal.
At each time point, samples were assessed in triplicate; the final cfu/ml value was an average (mean) of the three readings.
An appropriate concentration of test compound(s) for use in this assay was determined based on previously conducted MIC/FIC assays.
The TTK assay can provide another measure of synergy, as combinations of compounds may interact to kill test micro-organisms more quickly than the individual compounds alone. This would be indicated by a steeper decline in viable bacterial cell counts as compared to those observed for the individual compounds alone.
TTK assays were then conducted, as described above, on samples of BP, TBHQ and a BP/TBHQ mixture, using S. aureus ATCC 29213 as the test organism. The solvents used were DMSO for the BP and ethanol for the TBHQ. The results are shown in Table 3. cfu values were measured at time 0, 0.5 hours and 1 hour.

[1] = system: Staphylococcus auricularis ATCC 33753; test: MBC assay; format: cell-based; conditions: ATCC33753
Experimental: (§1) The staphylococci and enterococci were cultured and maintained on Mueller-Hinton Medium (agar and broth) at pH 7.2; they were incubated aerobically at 37° C. for 24 hours.
(§2) This assay, normally carried out after an MIC assay, determines the minimum concentration of a compound that is lethal to the micro-organism being tested.
(§3) These samples were then individually sub-cultured on non-selective agar medium, under the incubation conditions described above. Following incubation they were examined visually for bacterial growth.

[2] = system: Staphylococcus cohnii ATCC 29974; test: MBC assay; format: cell-based; conditions: ATCC29974
Experimental: as §1, §2, §3

S. aureus ATCC 12602 = test: MBC assay; format: cell-based; conditions: Staphylococcus aureus, ATCC12602
Experimental: as §1, §2, §3

[3] = system: S. saprophyticus NCTC 7292; test: MBC assay; format: cell-based; conditions: Staphylococcus saprophyticus, NCTC7292
Experimental: as §1, §2, §3

[4] = system: S. epidermidis (NCTC 11047); test: MBC assay; format: cell-based; conditions: Staphylococcus epidermidis, NCTC11047
Experimental: as §1, §2, §3

S. aureus ATCC 12604 = test: MBC assay; format: cell-based; conditions: Staphylococcus aureus, ATCC12604
Experimental: as §1, §2, §3

S. aureus ATCC 12600-U = test: MBC assay; format: cell-based; conditions: Staphylococcus aureus, ATCC12600
Experimental: as §1, §2, §3

S. aureus ATCC 12607 = test: MBC assay; format: cell-based; conditions: Staphylococcus aureus, ATCC12607
Experimental: as §1, §2, §3

S. aureus CPHL EMRSA 17 = test: MBC assay; format: cell-based; conditions: Staphylococcus aureus
Experimental: as §1, §2, §3

S. aureus ATCC 12605 = test: MBC assay; format: cell-based; conditions: Staphylococcus aureus, ATCC12605
Experimental: as §1, §2, §3

[5] = system: Staphylococcus capitis ATCC 27840; test: MBC assay; format: cell-based; conditions: ATCC27840
Experimental: as §1, §2, §3

[6] = system: S. aureus CPHL GISA HO41340156; test: MBC assay; format: cell-based; conditions: Staphylococcus aureus
Experimental: as §1, §2, §3

[7] = system: Staphylococcus aureus ATCC 12600; test: MBC assay; format: cell-based; conditions: ATCC12600
Experimental: as §1, §2, §3

S. aureus ATCC 12601 = test: MBC assay; format: cell-based; conditions: Staphylococcus aureus, ATCC12601
Experimental: as §1, §2, §3

[8] = system: Staphylococcus warneri ATCC 27836; test: MBC assay; format: cell-based; conditions: ATCC27836
Experimental: as §1, §2, §3

[9] = system: Staphylococcus simulans ATCC 27848; test: MBC assay; format: cell-based; conditions: ATCC27848
Experimental: as §1, §2, §3

S. aureus ATCC 12606 = test: MBC assay; format: cell-based; conditions: Staphylococcus aureus, ATCC12606
Experimental: as §1, §2, §3

[10] = system: Staphylococcus haemolyticus ATCC 29970; test: MBC assay; format: cell-based; conditions: ATCC29970
Experimental: as §1, §2, §3

S. aureus CPHL VISA Mu50 = test: MBC assay; format: cell-based; conditions: Staphylococcus aureus
Experimental: as §1, §2, §3

[11] = system: Staphylococcus xylosus ATCC 29971; test: MBC assay; format: cell-based; conditions: ATCC29971
Experimental: as §1, §2, §3

[12] = system: Staphylococcus hominis ATCC 27844; test: MBC assay; format: cell-based; conditions: ATCC27844
Experimental: as §1, §2, §3

S. aureus CPHL VISA Mu3 = test: MBC assay; format: cell-based; conditions: Staphylococcus aureus
Experimental: as §1, §2, §3

S. aureus ATCC 25923 = test: MBC assay; format: cell-based; conditions: Staphylococcus aureus, ATCC25923
Experimental: as §1, §2, §3

SMILES: O=C(OOC(=O)c1ccccc1)c1ccccc1 [benzoyl peroxide]
- Time to kill (S. aureus ATCC 29213): >1 h
- CFU/ml 0.5 (S. aureus ATCC 29213): 6.20 × 10^5 CFU/ml
- CFU/ml 1.0 (S. aureus ATCC 29213): 3.67 × 10^4 CFU/ml
- CFU/ml t = 0 (S. aureus ATCC 29213): 7.63 × 10^5 CFU/ml
- MBC [1]: 62.5 µg/mL (≈ 258 µM)
- MBC [2]: 125 µg/mL (≈ 516 µM)
- MBC (S. aureus ATCC 12602): 125 µg/mL (≈ 516 µM)
- MBC ([3]; S. saprophyticus NCTC 7292, read-out: MBC): > 250 µg/mL
- MBC ([4]; S. epidermidis NCTC 11047, read-out: MBC): 250 µg/mL (≈ 1030 µM)
- MBC (S. aureus ATCC 12604; S. aureus ATCC 12604, read-out: MBC): 250 µg/mL (≈ 1030 µM)
- MBC (S. aureus ATCC 12600-U; S. aureus ATCC 12600-U, read-out: MBC): > 250 µg/mL
- MBC (S. aureus ATCC 12607): 250 µg/mL (≈ 1030 µM)
- MBC (S. aureus CPHL EMRSA 17): 125 to 250 µg/mL (≈ 516 to 1030 µM)
- MBC (S. aureus ATCC 12605): 250 µg/mL (≈ 1030 µM)
- MBC [5]: 250 µg/mL (≈ 1030 µM)
- MBC ([6]; S. aureus CPHL GISA HO41340156 (Van/Tec intermediate), read-out: MBC): 250 µg/mL (≈ 1030 µM)
- MBC ([7]; Staphylococcus aureus ATCC 12600, read-out: MBC): 250 µg/mL (≈ 1030 µM)
- MBC (S. aureus ATCC 12601; S. aureus ATCC 12601, read-out: MBC): 250 µg/mL (≈ 1030 µM)
- MBC ([8]; Staphylococcus warneri ATCC 27836, read-out: MBC): > 250 µg/mL
- MBC ([9]; Staphylococcus simulans ATCC 27848, read-out: MBC): > 250 µg/mL
- MBC (S. aureus ATCC 12606; S. aureus ATCC 12606, read-out: MBC): 250 µg/mL (≈ 1030 µM)
- MBC ([10]; Staphylococcus haemolyticus ATCC 29970, read-out: MBC): 250 µg/mL (≈ 1030 µM)
- MBC (S. aureus CPHL VISA Mu50; S. aureus CPHL VISA Mu50 (Van intermediate), read-out: MBC): 250 µg/mL (≈ 1030 µM)
- MBC ([11]; Staphylococcus xylosus ATCC 29971, read-out: MBC): 250 µg/mL (≈ 1030 µM)
- MBC [12]: 250 µg/mL (≈ 1030 µM)
- MBC (S. aureus CPHL VISA Mu3): 125 to 250 µg/mL (≈ 516 to 1030 µM)
- MBC (S. aureus ATCC 25923; S. aureus ATCC 25923, read-out: MBC): 250 µg/mL (≈ 1030 µM)

SMILES: CC(C)(C)c1cc(O)ccc1O [TBHQ, t-butyl hydroquinone]
- Time to kill (S. aureus ATCC 29213): >1 h
- CFU/ml 0.5 (S. aureus ATCC 29213): 7.40 × 10^5 CFU/ml
- CFU/ml 1.0 (S. aureus ATCC 29213): 8.47 × 10^5 CFU/ml
- CFU/ml t = 0 (S. aureus ATCC 29213): 7.63 × 10^5 CFU/ml
- MBC [1]: 1.95 µg/mL (≈ 11.7 µM)
- MBC [2]: 7.8 µg/mL (≈ 46.9 µM)
- MBC (S. aureus ATCC 12602): 7.8 µg/mL (≈ 46.9 µM)
- MBC [3]: 7.8 µg/mL (≈ 46.9 µM)
- MBC [4]: 7.8 µg/mL (≈ 46.9 µM)
- MBC (S. aureus ATCC 12604): 7.8 µg/mL (≈ 46.9 µM)
- MBC (S. aureus ATCC 12600-U): 7.8 µg/mL (≈ 46.9 µM)
- MBC (S. aureus ATCC 12607): 3.9 µg/mL (≈ 23.5 µM)
- MBC (S. aureus CPHL EMRSA 17; S. aureus CPHL EMRSA 17 (resistance Met/β-lactams), read-out: MBC): 3.9 µg/mL (≈ 23.5 µM)
- MBC (S. aureus ATCC 12605): 3.9 µg/mL (≈ 23.5 µM)
- MBC [5]: 3.9 µg/mL (≈ 23.5 µM)
- MBC [6]: 15.6 µg/mL (≈ 93.9 µM)
- MBC ([7]; Staphylococcus aureus): 7.8 µg/mL (≈ 46.9 µM)
- MBC (S. aureus ATCC 12601): 15.6 µg/mL (≈ 93.9 µM)
- MBC ([8]; Staphylococcus warneri): 7.8 µg/mL (≈ 46.9 µM)
- MBC ([9]; Staphylococcus simulans): 31.2 µg/mL (≈ 188 µM)
- MBC (S. aureus ATCC 12606): 7.8 µg/mL (≈ 46.9 µM)
- MBC ([10]; Staphylococcus haemolyticus): 7.8 µg/mL (≈ 46.9 µM)
- MBC (S. aureus CPHL VISA Mu50; VISA): 7.8 µg/mL (≈ 46.9 µM)
- MBC ([11]; Staphylococcus xylosus): 15.6 µg/mL (≈ 94 µM)
- MBC [12]: 3.9 µg/mL (≈ 23.5 µM)
- MBC (S. aureus CPHL VISA Mu3): 7.8 µg/mL (≈ 46.9 µM)
- MBC (S. aureus ATCC 25923): 7.8 µg/mL (≈ 46.9 µM)
